Reference: the NIST ThermoML archive (doi:10.1016/j.tca.2013.08.031)

Settings: for mass density: isochoric method

CCC(C)O (centres undefined) [butan-2-ol]
Settings | Critical density [kg/m3] | Critical temperature [K] | mass density [kg/m3]
306.95 K, Liquid | – | – | 794.06
335.35 K, Liquid | – | – | 769.05
367.55 K, Liquid | – | – | 735.98
408.51 K, Liquid | – | – | 683.53
433.35 K, Liquid | – | – | 648.53
463.85 K, Liquid | – | – | 598.18
492.87 K, Liquid | – | – | 538.17
504.95 K, Gas | – | – | 76.44
514.26 K, Gas | – | – | 95.93
515.15 K, Liquid | – | – | 474.07
522.2 K, Gas | – | – | 117
527.92 K, Gas | – | – | 142.27
529.41 K, Liquid | – | – | 403.55
533.73 K, Gas | – | – | 184.89
534.55 K, Liquid | – | – | 347.06
534.68 K, Gas | – | – | 198.25
535.83 K, Gas | – | – | 245.67
535.83 K, Liquid | – | – | 301.19
535.89 K, Liquid | – | – | 286.65
535.93 K, Liquid | – | – | 284.93
535.94 K, Liquid | – | – | 279.19
535.95 K, Liquid | – | – | 276.45
Liquid, DSC | 276.4 | – | –
Liquid, DTA | – | 535.95 | –
